Where two headings read alike, the source gives them in different places.
Experiments:
in vivo [1] = settings: male, Sprague Dawley, rat, 50 mg/kg, 50 mg/kg per os
Procedure: For this molecule, both antiviral potency (IC50 of 3 nM) and PK properties were improved, with low clearance and high exposure in mouse plasma. […] The tissue distribution was also assessed at two different time points (2 and 24 h) after per os administration in mice (20 mg/kg) and rats (50 mg/kg) (Fig. 5C). […] Such low lung/plasma ratio precluded the use of dEF3122 in respiratory diseases such as influenza without further optimization.

in vivo [2] = settings: male, CD1, mouse, 20 mg/kg, 20 mg/kg per os

O=C(Nc1scc(C2CCc3ccccc3C2)c1C(=O)O)c1ccccc1 (centres unmarked) [dEF3122]
Kp (in vivo [1]; 2 h, read-out: Liver:Plasma Ratio): 0.91
Kp (in vivo [1]; 2 h, read-out: Lung:Plasma Ratio): 0.11
Kp (in vivo [1]; 24 h, read-out: Liver:Plasma Ratio): 0.78
Kp (in vivo [1]; 24 h, read-out: Lung:Plasma Ratio): 0.18
Kp (in vivo [2]; Liver:Plasma Ratio, 2 h): 0.45
Kp (in vivo [2]; Liver:Plasma Ratio, 24 h): 0.88
Kp (in vivo [2]; Lung:Plasma Ratio, 2 h): 0.12
Kp (in vivo [2]; Lung:Plasma Ratio, 24 h): 0.13
